For 20 molecules, EC50 results are on record in US11136321B2, “Tricyclic compounds” (ALIGOS THERAPEUTICS, INC., priority 2019, dated 2021).

In one experiment the test system is HBV. Briefly: HBV-DNA antiviral assay using HepG2.117 cells. Particulars: Hepatitis B virus, 72 h, intracellular HBV DNA by qPCR, 3 days incubation. Type of experiment: cell-based, genotype D HBV. On the procedure:
The following assay procedure describes the HBV antiviral assay, using HepG2.117 cells, which carry a stably integrated genotype D HBV genome under the control of a Tet-off promoter, and intracellular HBV DNA quantification as endpoint. Cell viability is assessed in parallel by measuring the intracellular ATP content using ATPlite (Perkin Elmer).
On day 0, HepG2.117 cells (which are maintained in routine cell culture with doxycycline present in the medium at a final concentration of 1 μg/mL) were seeded in 96-well plates (white with clear bottom) at a density of 2.0×10^4 cells/well (0.1 mL/well) in medium without doxycycline to induce pgRNA transcription and subsequent formation of HBV particles. The cells were incubated at 37° C. and 5% CO2.
On day 1, medium was removed from each well, the test articles were diluted in culture medium without doxcycyline and 100 μL was added to cell culture wells (9 concentrations, 4-fold dilution). For each plate, 6 untreated (merely DMSO) wells were included. The final concentration of DMSO in the culture medium was 2%. Each plate was prepared in duplicate (one for HBV DNA extraction, one for ATPlite measurement). The cells were incubated at 37° C. and 5% CO2 for 3 days.
On day 4, cell viability was assessed using ATPlite and cell lysates were prepared for HBV DNA extraction and subsequent quantification by qPCR.
Medium was removed from each well and 100 μL of 0.33% NP-40 in H2O was added to each well. Plates were sealed, incubated at 4° C. for 5 mins, vortexed extensively and centrifuged briefly. Next, 35 μL of lysate was added to 65 μL QuickExtract DNA Extraction Solution (Epicentre) in a PCR plate for each well. PCR plate was incubated at 65° C. for 6 mins, 98° C. for 2 mins and finally cooled to 4° C. HBV DNA was then quantified by qPCR with HBV-specific primers and probes as specified in Table 1 using the Bio-Rad SSOAdvanced Universal Probes Supermix on a CFX96 machine (Bio-Rad). The PCR cycle program consisted of 95° C. for 3 mins, followed by 40 cycles at 95° C. for 10 sec and 60° C. for 30 sec.
A DNA standard was prepared by dilution of an IDT gBlock corresponding to the amplicon with concentrations ranging from 10^2 to 10^8 copies/input (i.e. per 4 μL) and used to generate a standard curve by plotting Cq values vs. HBV DNA standard concentration. The quantity of HBV DNA in each sample was determined by interpolating from the standard curve.
Cell viability was calculated as follows: % Cell viability=(luminescence value of test sample)/(average luminescence value of 2% DMSO control)×100%. HBV DNA inhibition was calculated as follows: 100−(HBV DNA copy number of test sample)/(average HBV DNA copy number of 2% DMSO control)×100%. No normalization to entecavir was required due to the excellent dynamic window of this assay. The CC50, EC50 and EC90 values were determined by dose-response curves fitted by GraphPad Prism using “log (agonist) vs. response—Variable slope”.
In general terms: In qPCR the cycle at which signal appears reflects the starting amount.
The term EC50 denotes the concentration that produces a half-maximal response. On to `CNC(=O)c1ccc(-n2c(=O)c3c(n4ncc(Cc5ccccc5)c24)CN(C(=O)c2ccc(Br)c(C#N)c2)[C@@H](C)C3)cc1` (stereo in doubt) [Compound 80, N-methyl-4-[rac-(11S)-5-benzyl-12-(4-bromo-3-cyano-benzoyl)-11-methyl-8-oxo-2,3,7,12-tetrazatricyclo [7.4.0.0 2,6]trideca-1(9),3,5-trien-7-yl] benzamide], for which the EC50 lay in the range of 100 to 500 nM.

As to `O=C(c1ccc(Cl)c(Cl)c1)N1CCc2c(n3ncc(Cc4ccccc4)c3n(-c3ccccc3)c2=O)C1` [Compound 27, 5-benzyl-12-(3,4-dichlorobenzoyl)-7-phenyl-2,3,7,12-tetrazatricyclo [7.4.0.0 2,6] trideca-1(9),3,5-trien-8-one], the EC50 is at most 100 nM. Turning to `Cc1cnn2c3c(c(=O)n(-c4ccccc4)c12)CCN(C(=O)c1ccc(Br)c(F)c1)C3` [Compound 8, 12-(4-bromo-3-fluorobenzoyl)-5-methyl-7-phenyl-2,3,7,12-tetraazatricyclo[7.4.0.0^[2,6]]trideca-1(9),3,5-trien-8-one], the EC50 lay within 500 to 5000 nM.

In turn, `CC(C)CNC(=O)c1cnn2c3c(c(=O)n(-c4ccccc4)c12)CCN(C(=O)c1ccc(Cl)c(Cl)c1)C3` [Compound 19, 12-(3,4-dichlorobenzoyl)-N-isobutyl-8-oxo-7-phenyl-2,3,7,12-tetrazatricyclo [7.4.0.0^2,6] trideca-1(9),3,5-triene-5-carboxamide] displayed an EC50 above 5000 nM. Same read-out and setting: under `CNC(=O)c1ccc(-n2c(=O)c3c(n4ncc([C@@H](C)c5ccccc5)c24)CN(C(=O)c2ccc(Br)c(C#N)c2)CC3)cc1` (stereo in doubt) [Compound 58, 4-[12-(4-bromo-3-cyano-benzoyl)-8-oxo-5-[rac-(1S)-1-phenylethyl]-2,3,7,12-tetrazatricyclo [7.4.0.0 2,6]trideca-1(9),3,5-trien-7-yl]-N-methyl-benzamide] stands at most 100 nM. In the case of `COc1ccc(-n2c(=O)c3c(n4ncc(NS(=O)(=O)Cc5ccccc5)c24)CN(C(=O)c2ccc(Br)c(Cl)c2)CC3)cc1` [Compound 33, N-[12-(4-bromo-3-chloro-benzoyl)-7-(4-methoxyphenyl)-8-oxo-2,3,7,12-tetrazatricyclo [7.4.0.0 2,6]trideca-1(9),3,5-trien-5-yl]-1-phenyl-methanesulfonamide], the EC50 was in the range of 500 to 5000 nM. `CNC(=O)c1ccc(-n2c(=O)c3c(n4ncc(NCc5ccccc5F)c24)CN(C(=O)c2ccc(Br)c(C#N)c2)CC3)cc1` [Compound 69, 4-[12-(4-bromo-3-cyano-benzoyl)-5-[(2-fluorophenyl)methylamino]-8-oxo-2,3,7,12-tetrazatricyclo [7.4.0.0 2,6]trideca-1(9),3,5-trien-7-yl]-N-methyl-benzamide]: the EC50 was in the range of 100 to 500 nM. In turn, `CC(C)NC(=O)c1ccc(-n2c(=O)c3c(n4ncc(Cc5ccccc5)c24)CN(C(=O)c2ccc(Br)c(C#N)c2)CC3)cc1` [Compound 65, 4-[5-benzyl-12-(4-bromo-3-cyano-benzoyl)-8-oxo-2,3,7,12-tetrazatricyclo [7.4.0.0 2,6]trideca-1(9),3,5-trien-7-yl]-N-isopropyl-benzamide] gave an EC50 of 500 to 5000 nM. In turn, `CNC(=O)c1ccc(-n2c(=O)c3c(n4ncc(Cc5ccc(OC)cc5)c24)CN(C(=O)c2ccc(Br)c(C#N)c2)CC3)cc1` [Compound 89, 4-[12-(4-bromo-3-cyano-benzoyl)-5-[(4-methoxyphenyl)methyl]-8-oxo-2,3,7,12-tetrazatricyclo [7.4.0.0 2,6]trideca-1(9),3,5-trien-7-yl]-N-methyl-benzamide] gave an EC50 of at most 100 nM. As for `Cc1cnn2c3c(c(=O)n(-c4ccccc4)c12)CCN(C(=O)c1ccc(Br)c(Cl)c1)C3` [Compound 10, 12-(4-bromo-3-chlorobenzoyl)-5-methyl-7-phenyl-2,3,7,12-tetraazatricyclo[7.4.0.0^[2,6]]trideca-1(9),3,5-trien-8-one], the EC50 was in the range of 100 to 500 nM. The same measure, in the same setting: the value for `CNC(=O)c1ccc(-n2c(=O)c3c(n4ncc(Nc5ccccc5)c24)CN(C(=O)c2ccc(Br)c(Cl)c2)CC3)cc1` [Compound 40, 4-[5-anilino-12-(4-bromo-3-chloro-benzoyl)-8-oxo-2,3,7,12-tetrazatricyclo [7.4.0.0 2,6]trideca-1(9),3,5-trien-7-yl]-N-methyl-benzamide] was at most 100 nM; that for `CNC(=O)c1ccc(-n2c(=O)c3c(n4ncc(NCc5ccccc5)c24)CN(C(=O)c2ccc(Br)c(Cl)c2)CC3)cc1` [Compound 47, 4-[5-(benzylamino)-12-(4-bromo-3-chloro-benzoyl)-8-oxo-2,3,7,12-tetrazatricyclo [7.4.0.0 2,6]trideca-1(9),3,5-trien-7-yl]-N-methyl-benzamide] was at most 100 nM; that for `CNC(=O)c1ccc(-n2c(=O)c3c(n4ncc(Cc5ccc(OC)cc5F)c24)CN(C(=O)c2ccc(Br)c(C#N)c2)CC3)cc1` [Compound 86, 4-[12-(4-bromo-3-cyano-benzoyl)-5-[(2-fluoro-4-methoxy-phenyl)methyl]-8-oxo-2,3,7,12-tetrazatricyclo [7.4.0.0 2,6]trideca-1(9),3,5-trien-7-yl]-N-methyl-benzamide] was 100 to 500 nM. Still for that read-out and setting: the value for `CNC(=O)c1ccc(-n2c(=O)c3c(n4ncc(NCc5ccc(OC(F)(F)F)cc5)c24)CN(C(=O)c2ccc(Br)c(Cl)c2)CC3)cc1` [Compound 45, 4-[12-(4-bromo-3-chloro-benzoyl)-8-oxo-5-[[4-(trifluoromethoxy)phenyl]methylamino]-2,3,7,12-tetrazatricyclo [7.4.0.0 2,6]trideca-1(9),3,5-trien-7-yl]-N-methyl-benzamide] was at most 100 nM; that for `NC(=O)c1ccc(-n2c(=O)c3c(n4ncc(NCc5ccccc5)c24)CN(C(=O)c2ccc(Cl)c(Cl)c2)CC3)cc1` [Compound 50, 4-[5-(benzylamino)-12-(3,4-dichlorobenzoyl)-8-oxo-2,3,7,12-tetrazatricyclo [7.4.0.0 2,6]trideca-1(9),3,5-trien-7-yl] benzamide] was at most 100 nM. The molecule `CNC(=O)c1ccc(-n2c(=O)c3c(n4ncc(NCc5ccccc5F)c24)CN(C(=O)c2ccc(Br)c(Cl)c2)CC3)cc1` [Compound 66, 4-[12-(4-bromo-3-chloro-benzoyl)-5-[(2-fluorophenyl)methylamino]-8-oxo-2,3,7,12-tetrazatricyclo [7.4.0.0 2,6]trideca-1(9),3,5-trien-7-yl]-N-methyl-benzamide] came in with an EC50 of at most 100 nM.

`COc1ccc(Cn2c(=O)c3c(n4ncc(Cc5ccccc5)c24)CN(C(=O)c2ccc(Cl)c(Cl)c2)CC3)cc1` [Compound 14, 5-benzyl-12-(3,4-dichlorobenzoyl)-7-[(4-methoxyphenyl)methyl]-2,3,7,12-tetrazatricyclo [7.4.0.0^2,6] trideca-1(9),3,5-trien-8-one]: the concentration giving a half-maximal response (EC50) was 500 to 5000 nM.

The experiment is the same for the next values; noted with them: intracellular HBV DNA by qPCR, 3 days incubation.
`CNC(=O)c1ccc(-n2c(=O)c3c(n4ncc(Cc5ccccc5)c24)CN(C(=O)c2ccc(Br)c(Cl)c2)C(C)C3)cc1` (single isomer, unassigned) [Compound 71, 4-[(11R*)-5-benzyl-12-(4-bromo-3-chlorobenzoyl)-11-methyl-8-oxo-2,3,7,12-tetraazatricyclo[7.4.0.0^[2,6]]trideca-1(9),3,5-trien-7-yl]-N-methylbenzamide]: the EC50 was at most 100 nM. The same measure, in the same setting: under `CC(C)NC(=O)c1cnn2c3c(c(=O)n(-c4ccccc4)c12)CCN(C(=O)c1ccc(Cl)c(Cl)c1)C3` [Compound 16, 12-(3,4-dichlorobenzoyl)-N-isopropyl-8-oxo-7-phenyl-2,3,7,12-tetraazatricyclo[7.4.0.0^[2,6]]trideca-1(9),3,5-triene-5-carboxamide] stands above 5000 nM; under `CC(C)CC(=O)Nc1cnn2c3c(c(=O)n(-c4ccccc4)c12)CCN(C(=O)c1ccc(Cl)c(Cl)c1)C3` [Compound 17, N-[12-(3,4-dichlorobenzoyl)-8-oxo-7-phenyl-2,3,7,12-tetraazatricyclo[7.4.0.0^[2,6]]trideca-1(9),3,5-trien-5-yl]-3-methylbutanamide], above 5000 nM.
